Results from patent US8822449B2, “Substituted aminoindanes and analogs thereof, and the pharmaceutical use thereof” (Sanofi, priority 2008, dated 2014).

These compounds were tested against T1, sodium-proton exchanger of subtype 3 (NHE3) (Homo sapiens, UniProt P48764) (assay: Recovery of intracellular pH (pHi) after acidification in LAP1 cells stably expressing NHE3 (BCECF fluorescence, FLIPR)). Details: LAP1 cells stably expressing NHE3; pH recovery after acidification; range 1 is % inhibition at 10 μM; read-out: Activity range (inhibitory effect on NHE3).
T1 construct: expressed in transfected cells
T1 sequence (P48764 26-834): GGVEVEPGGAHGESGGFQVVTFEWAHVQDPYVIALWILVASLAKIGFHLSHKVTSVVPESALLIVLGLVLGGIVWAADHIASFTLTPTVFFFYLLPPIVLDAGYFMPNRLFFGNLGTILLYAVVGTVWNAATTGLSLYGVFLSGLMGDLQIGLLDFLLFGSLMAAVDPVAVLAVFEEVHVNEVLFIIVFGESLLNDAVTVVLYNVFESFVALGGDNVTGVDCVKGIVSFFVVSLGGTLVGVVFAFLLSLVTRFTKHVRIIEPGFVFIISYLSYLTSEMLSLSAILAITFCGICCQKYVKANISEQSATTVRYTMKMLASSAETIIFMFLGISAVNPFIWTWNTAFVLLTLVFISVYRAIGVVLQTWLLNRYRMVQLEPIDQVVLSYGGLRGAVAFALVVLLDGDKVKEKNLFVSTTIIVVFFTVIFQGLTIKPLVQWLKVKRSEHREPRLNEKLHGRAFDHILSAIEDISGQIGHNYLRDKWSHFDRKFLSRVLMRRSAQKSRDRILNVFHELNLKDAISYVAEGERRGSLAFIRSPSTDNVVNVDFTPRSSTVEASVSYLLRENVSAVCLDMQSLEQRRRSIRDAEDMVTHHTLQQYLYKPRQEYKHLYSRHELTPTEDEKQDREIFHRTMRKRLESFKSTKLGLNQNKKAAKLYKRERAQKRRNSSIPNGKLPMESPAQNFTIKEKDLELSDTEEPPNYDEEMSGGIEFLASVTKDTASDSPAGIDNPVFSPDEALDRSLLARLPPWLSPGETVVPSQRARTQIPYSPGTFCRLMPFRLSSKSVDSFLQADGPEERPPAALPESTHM
Format: cell-based

Row | IC50 | inhibition at 10 µM | Compound
1 | < 1000 nM | – | Cc1nnc(C)n1-c1ccc(O[C@H]2c3cc(Cl)cc(Cl)c3C[C@@H]2N2CC[C@@H](O)C2)cc1 [Example 133, (R)-1-{trans-(1S,2S)-4,6-dichloro-1-[4-(3,5-dimethyl-[1,2,4]triazol-4-yl)phenoxy]indan-2-yl}pyrrolidin-3-ol]
2 | – | 20 to 50% | CS(=O)(=O)c1ccccc1O[C@H]1c2ccccc2CC[C@@H]1N1CCC[C@@H](N)C1 (racemic) [Example 45, (R)-1-[rac-trans-(1,2)-1-(2-methanesulfonylphenoxy)-1,2,3,4-tetrahydronaphthalen-2-yl]piperidin-3-ylamine]
3 | < 1000 nM | – | CC(=O)Nc1cccc(OC2c3ccccc3CC2N2CCCC2)c1 (racemic) [Example 641, N-[3-(rac-trans-(1,2)-2-pyrrolidin-1-ylindan-1-yloxy)phenyl]acetamide]
4 | 1000 to 10000 nM | – | CS(=O)(=O)c1ccc(O[C@H]2c3cc(Cl)cc(F)c3C[C@@H]2NC2CCCC2)cc1 [Example 751, [trans-(1S,2S)-6-Chloro-4-fluoro-1-(4-methanesulfonyl-phenoxy)-indan-2-yl]-cyclopentyl-amine]
5 | < 1000 nM | – | N#Cc1ccc(O[C@H]2c3cc(Cl)cc(Cl)c3C[C@@H]2N2CCNCC2)c(F)c1 [Example 456, 4-((1S,2S)-4,6-dichloro-2-piperazin-1-ylindan-1-yloxy)-3-fluorobenzonitrile]
6 | 1000 to 10000 nM | – | CCOC(=O)c1ncoc1-c1ccc(O[C@H]2c3ccccc3CC[C@@H]2N2CCC[C@@H](N)C2)cc1 (racemic) [Example 583, 5-{4-[rac-trans-(1,2)-2-((R)-3-aminopiperidin-1-yl)-1,2,3,4-tetrahydronaphthalen-1-yloxy]phenyl}oxazole-4-carboxylic acid ethyl ester]
7 | < 1000 nM | – | CC(=O)Nc1cccc(O[C@H]2c3cc(Cl)cc(Cl)c3C[C@@H]2N2CCCNCC2)c1 (racemic) [Example 644, N-[3-(rac-trans-(1,2)-4,6-dichloro-2-[1,4]diazepan-1-ylindan-1-yloxy)phenyl]acetamide]
8 | – | 20 to 50% | NS(=O)(=O)c1ccc(O[C@H]2c3cccc(Cl)c3C[C@@H]2N2CCCC2)cc1 (racemic) [Example 471, 4-(rac-trans-(1,2)-4-chloro-2-pyrrolidin-1-ylindan-1-yloxy)benzenesulfonamide]
9 | < 1000 nM | – | CC(=O)Nc1cccc(O[C@H]2c3ccccc3C[C@@H]2N2CCCC2)n1 (racemic) [Example 668, N-[6-(rac-trans-(1,2)-2-pyrrolidin-1-ylindan-1-yloxy)-pyridin-2-yl]acetamide]
10 | – | 20 to 50% | CN(C)C(=O)Cc1ccc(O[C@H]2c3ccccc3CC[C@@H]2N2CCC[C@@H](N)C2)cc1 (racemic) [Example 380, 2-{4-[rac-trans-(1,2)-2-((R)-3-aminopiperidin-1-yl)-1,2,3,4-tetrahydronaphthalen-1-yloxy]phenyl}-N,N-dimethylacetamide]
11 | 1000 to 10000 nM | – | CS(=O)(=O)c1ccc(O[C@H]2c3cc(F)cc(F)c3C[C@@H]2N2CC[C@@H](O)C2)cc1 [Example 28, (R)-1-[(1S,2S)-4,6-difluoro-1-(4-methanesulfonylphenoxy)indan-2-yl]pyrrolidin-3-ol]
12 | – | 20 to 50% | Cc1cc(C)c2cccnc2c1O[C@H]1c2ccccc2CC[C@@H]1N1CCOCC1 (racemic) [Example 573, 5,7-dimethyl-8-(rac-trans-(1,2)-2-morpholin-4-yl-1,2,3,4-tetrahydronaphthalen-1-yloxy)quinoline]
13 | 1000 to 10000 nM | – | CCc1nnc(C(C)C)n1-c1ccc(O[C@H]2c3cc(Cl)cc(F)c3C[C@@H]2N2CC[C@@H](O)C2)cc1 [Example 722, (R)-1-{trans-(1S,2S)-6-Chloro-1-[4-(3-ethyl-5-isopropyl-[1,2,4]triazol-4-yl)-phenoxy]-4-fluoro-indan-2-yl}-pyrrolidin-3-ol]
14 | – | 20 to 50% | N#Cc1c(F)cccc1O[C@H]1c2ccccc2CC[C@@H]1N1CCC[C@H](N)C1 (racemic) [Example 372, 2-[rac-trans-(1,2)-2-((S)-3-aminopiperidin-1-yl)-1,2,3,4-tetrahydronaphthalen-1-yloxy]-6-fluorobenzonitrile]
15 | – | 20 to 50% | N[C@@H]1CCCN([C@H]2CCc3ccccc3[C@@H]2Oc2ccc(Cl)nc2)C1 (racemic) [Example 81, (R)-1-[rac-trans-(1,2)-1-(6-chloropyridin-3-yloxy)-1,2,3,4-tetrahydronaphthalen-2-yl]piperidin-3-ylamine]
16 | – | 20 to 50% | CC(=O)Nc1cccc(O[C@H]2c3c(Cl)cc(Cl)cc3C[C@@H]2N(C)C)c1 (racemic) [Example 654, N-[3-(rac-trans-(1,2)-5,7-dichloro-2-dimethylaminoindan-1-yloxy)phenyl]acetamide]
17 | < 1000 nM | – | Cc1nnc(C2CC2)n1-c1ccc(O[C@H]2c3ccccc3C[C@@H]2N2CCCC2)cc1 (racemic) [Example 448, 3-Cyclopropyl-5-methyl-4-[4-(rac-trans-(1,2)-2-pyrrolidin-1-ylindan-1-yloxy)phenyl]-4H-[1,2,4]triazole]
18 | – | 20 to 50% | CS(=O)(=O)c1ccc(CO[C@H]2c3cc(Cl)cc(Cl)c3C[C@@H]2N2CC[C@@H](O)C2)c(Cl)c1 [Example 24, (R)-1-[(1S,2S)-4,6-dichloro-1-(2-chloro-4-methanesulfonylbenzyloxy)indan-2-yl]pyrrolidin-3-ol]
19 | < 1000 nM | – | Cc1nnc(C)n1-c1ccc(O[C@H]2c3cc(Cl)ccc3C[C@@H]2N2CC[C@H](F)C2)c(Cl)c1 [Example 559, 4-{3-chloro-4-[trans-(1S,2S)-6-chloro-2-((S)-3-fluoropyrrolidin-1-yl)indan-1-yloxy]phenyl}-3,5-dimethyl-4H-[1,2,4]triazole]
20 | 1000 to 10000 nM | – | N[C@@H]1CCCN([C@@H]2Cc3ccccc3[C@H]2Oc2ccc(Cl)nc2)C1 (racemic) [Example 82, (R)-1-[rac-trans-(1,2)-1-(6-chloropyridin-3-yloxy)indan-2-yl]piperidin-3-ylamine]
21 | 1000 to 10000 nM | – | COCCc1ccc(O[C@@H]2c3ccccc3C[C@H]2N2CCC(N)C2)cc1 (mixture of isomers) [Example 342, 1-{rac-trans-(1,2)-1-[4-(2-methoxyethyl)phenoxy]indan-2-yl}pyrrolidin-3-ylamine]
22 | 1000 to 10000 nM | – | NS(=O)(=O)c1ccc(O[C@H]2c3ccccc3C[C@@H]2N2CC[C@@H](CO)C2)cc1 (racemic) [Example 526, 4-[rac-trans-(1,2)-2-((R)-3-Hydroxymethylpyrrolidin-1-yl)indan-1-yloxy]benzenesulfonamide]
23 | 1000 to 10000 nM | – | CC(=O)Nc1cccc(OC2c3ccccc3CC2N(C)C)c1 (racemic) [Example 638, N-[3-(rac-trans-(1,2)-2-dimethylaminoindan-1-yloxy)phenyl]acetamide]
24 | 1000 to 10000 nM | – | CS(=O)(=O)c1ccc(N[C@H]2c3cc(Cl)cc(Cl)c3C[C@@H]2N2CC[C@@H](O)C2)cc1 [Example 26, (R)-1-[(1S,2S)-4,6-dichloro-1-(4-methanesulfonylphenylamino)indan-2-yl]pyrrolidin-3-ol]
25 | < 1000 nM | – | Clc1cc(Cl)c2c(c1)[C@H](Oc1ccc(-n3cncn3)cc1)[C@@H](N1CCNCC1)C2 (racemic) [Example 276, 1-[rac-trans-(1,2)-4,6-dichloro-1-(4-[1,2,4]triazol-1-ylphenoxy)indan-2-yl]piperazine]
26 | – | 20 to 50% | O=[N+]([O-])c1ccc(O[C@H]2c3ccccc3C[C@@H]2N2CCCC2)c(Cl)c1 (racemic) [Example 251, 1-[1-(2-chloro-4-nitrophenoxy)indan-2-yl]pyrrolidine]
